Assay results: patent US9261498B2, “Biomarker for sensitivity to mTOR inhibitor therapy in kidney cancer” (The Regents of the University of California, priority 2005, dated 2016)

System: SN12C-CSCG and ACHN-CSCG xenograft tumors
Experiment: Subcutaneous xenograft tumor growth, parental tumors
Assay type: in vivo, SCID mice
Details: 0.1 mg/kg CCI-779 daily
Description: FIGS. 1A-1E. Effects of VHL knockdown on sensitivity to CCI-779. (a) Immunoblotting of lysates derived from shRNA and control (empty vector, V) in SN12C, using antibodies against VHL (both isoforms detected), HIF-1α, HIF-2α, GLUT-1, CA-IX and β-Actin (as a loading control). (b) SN12C-CSCG and SN12C-VHLshRNA cells (1×10^5) were cultured in 10% serum rich media, in the presence of vehicle, 1 or 10 nM of CCI-779 for 5 days. Cell growth was measured by cell counts (n=3). […] (c) SN12C-CSCG (C1) and SN12C-CSCG shVHL RNA (C2) cells were injected into SCID mice at a dose of 1×10^6 cells per mouse (n=30). […] Phosphorylated-S6 protein in SN12C-CSCG and SN12C-VHL shRNA xenograft tumors treated with vehicle or 0.1 mg/kg of CCI-779 was measured by immunoblot C3 and C4). […]
For in vitro experiments, cells (5×10^4) were plated and treated with 1 and 10 nM CCI-779 (kind gift of J. Gibbons, Wyeth) or vehicle (ethanol). On day 5-post treatment, cells were trypsinized, resuspended in DMEM with 10% FBS and counted using the VI CELL counter (Beckman Coulter), according to the manufacturer's instructions. […] In vivo tumorigenicity was measured by injection of 5×10^5 SN12C-CSCG, ACHN-CSCG, SN12C-CSCG-VHLshRNAi, ACHN-CSCG-VHLshRNAi, SN12C-CSCG-VHLshRNAi-pBABE, SN12C-CSCG-VHLshRNAi-pBABE-HA-HIF-2α (P405A; P531A) cells in 100 μl of Matrigel (Collaborative Biomedical) subcutaneously into the flanks of SCID mice. […]

SMILES: CO[C@H]1C[C@@H]2CC[C@@H](C)[C@@](O)(O2)C(=O)C(=O)N2CCCC[C@H]2C(=O)O[C@H]([C@H](C)C[C@@H]2CC[C@@H](OC(=O)C(C)(CO)CO)[C@H](OC)C2)CC(=O)[C@H](C)/C=C(\C)[C@@H](O)[C@@H](OC)C(=O)[C@H](C)C[C@H](C)/C=C/C=C/C=C/1C [CCI-779]
- growth of the parental tumors: no effect
